In patent US20120265121A1, “PHTHALOCYANINE-BASED ANTIFUNGAL AGENTS” (CASE WESTERN RESERVE UNIVERSITY, priority 2011, published 2012):

Assays:
[1] = test system: C. albicans (strain SC-5134); assay: Chromatin condensation by confocal microscopy; type: cell-based, Candida albicans; settings: highest dose of Pc 4-PDT or peroxide, 24 hr after treatment
Procedure: Confocal Microscopy: To investigate the uptake and localization of Pc 4, cells in standard growth medium plus 10% Fetal Bovine Serum (FBS) were loaded with 0.2 μM Pc 4 and incubated for 16 to 18 hr. Thirty minutes prior to imaging Pc 4, 50 nM MitoTracker Red (Invitrogen, Carlsbad, Calif., USA) or 50 μg/mL AlexaFluor 488-conjugated Concanavalin (Con) A (Invitrogen, Carlsbad, Calif., USA) and/or 10 μg/mL Hoechst 33342 (Invitrogen, Carlsbad, Calif., USA) was loaded onto cells. Five to 10 μL of stained cells were placed on a slide with a glass coverslip and all images acquired using an UltraVIEW VoX spinning disk confocal system (PerkinElmer, Waltham, Mass., USA), which was mounted on a Leica DMI6000B microscope (Leica Microsystems, Inc., Bannockburn, Ill., USA) equipped with a HCX PL APO 100×/1.4 oil immersion objective. Confocal images of Pc 4 fluorescence, MitoTracker Red, ConA (or FITC-labeled Annexin V) and Hoechst 33342 were collected using solid-state diode lasers, with 640-nm, 561-nm, 488-nm and 405-nm excitation light, respectively, and with appropriate emission filters.

[2] = test system: C. albicans (strain SC-5134); assay: FITC-labeled Annexin V staining of protoplasts (phosphatidylserine externalization); type: cell-based, Candida albicans; settings: positive controls: 20 mM H2O2 or 60 μM acetic acid, 4 hr
Procedure: Cells were then incubated for 4 hr before staining with FITC-labeled Annexin V. FIG. 4(a) provides confocal images of FITC-labeling of cells that had been treated with H2O2 or Pc 4-PDT. Scale bar, 20 μm. FIG. 4(b) provides a bar graph showing the results. For each experiment over 50-100 protoplasts cells were counted per sample. […] Cells were counted by eye using a Zeiss AxiovertTM S100 inverted epifluorescence microscope. Values represent the mean±S.E. from at least three independent experiments. […] Apoptosis Analyses: (A) FITC-labeled Annexin V staining-To assess the externalization of phosphatidylserine, protoplasts of C. albicans were stained with FITC-labeled Annexin V using the Annexin V-FLUOS staining kit (Roche, Germany) with minor modifications. Madeo et al., J Cell Biol 139:729-734 (1997); Park et al., Biochem Biophys Res Commun 394:170-172 (2010). Briefly, control and treated cells were washed three times with 1× PBS before incubating at 37° C. for 30 min in a protoplasting solution (50 mM KH2PO4, 5 mM EDTA and 50 mM DTT). Then cells were digested at 37° C. for 45 min in an enzyme solution (50 mM K2HPO4, 40 mM 2-mercaptoethanol, 3 μg/mL Chitinase, 1.8 μg/mL […], 0.15 mg/mL Zymolyase and 2.4 M sorbitol). 1× PBS was added to each sample and incubated for 30 min at room temperature in all experiments. Protoplasts were then incubated with 100 μL of Annexin V-FLUOS labeling solution for 15 min at 25° C. FITC-labeled Annexin V fluorescence was detected by both widefield (Leica DMI6000B microscope; Leica Microsystems, Inc., Bannockburn, Ill., USA) and confocal fluorescence microscopy.

Compound	chromatin condensation [1]	Annexin V positive cells [2] [%]
OO [H2O2, hydrogen peroxide, reference compound]	detected	~27
CC(=O)O [acetic acid]		~27
